{"source": "patent US20080146502A1", "about": "“Methods for modulating the sensation of satiety perception and agents useful for same” (Autogen Research Pty Ltd., priority 2004, published 2008)", "key": {"TRPV channels": {"system": "TRPV channels", "details": "cited from earlier work"}, "food intake in rats": {"system": "food intake in rats", "experiment": "Food intake in fasted rats after single intragastric gavage", "assay_type": "in vivo", "details": "for Food Intake: 5 mg/kg in saline, mean ± sem", "protocol": "Adult, male rats were fasted for 16 hours then administered with a single intragastric gavage of 1-[beta-[3-(4-Methoxyphenyl)propoxy]-4-methoxyphenethyl]-1H-imidazole.HCl at a dose of 5 mg/kg in saline in a volume of 0.5 ml, or saline alone (0.5 ml). There were 8 animals in each group. Food intake was measured at various timepoints over the following 24 hours."}, "[1]": {"system": "receptor-mediated Ca^2+ entry in stimulated platelets", "details": "cited from earlier work"}, "[2]": {"system": "receptor-mediated Ca^2+ entry in neutrophils", "details": "cited from earlier work"}, "[3]": {"system": "receptor-mediated Ca^2+ entry in endothelial cells", "details": "cited from earlier work"}, "[4]": {"details": "cited from earlier work"}}}
{"compound": "N.N.N.N.N.N.N.N.N.N.N.N.N.N.[Cl-].[Cl-].[Cl-].[Cl-].[Cl-].[Cl-].[O-2].[O-2].[Ru+3].[Ru+3].[Ru+4]", "note": "[Ruthenium Red]", "values": [{"measurement": "block of TRPV channels", "setting": "TRPV channels", "result": "blocks all TRPV channels"}]}
{"compound": "COc1ccc(CCCOC(Cn2ccnc2)c2ccc(OC)cc2)cc1", "note": "(stereo not drawn) [1-[β-[3-(4-methoxyphenyl)propoxy]-4-methoxyphenethyl]-1H-imidazole]", "values": [{"measurement": "food intake, trend vs saline", "setting": "food intake in rats; 5 mg/kg gavage, after 3 h, 5 h, 6 h, 8 h, 9 h, 10 h and 24 h, p<0.10", "result": "strong trends for reduced food intake"}, {"measurement": "Food Intake", "setting": "food intake in rats; 0.5 h after single intragastric gavage, rats fasted 16 h", "result": "2.4 ± 0.3", "unit": "g"}, {"measurement": "Food Intake", "setting": "food intake in rats; 1 h after single intragastric gavage, rats fasted 16 h", "result": "2.8 ± 0.3", "unit": "g"}, {"measurement": "Food Intake", "setting": "food intake in rats; 2 h after single intragastric gavage, rats fasted 16 h", "result": "2.9 ± 0.3", "unit": "g"}, {"measurement": "Food Intake", "setting": "food intake in rats; 3 h after single intragastric gavage, rats fasted 16 h", "result": "3.8 ± 0.4", "unit": "g"}, {"measurement": "Food Intake", "setting": "food intake in rats; 4 h after single intragastric gavage, rats fasted 16 h", "result": "4.9 ± 0.5", "unit": "g"}, {"measurement": "Food Intake", "setting": "food intake in rats; 5 h after single intragastric gavage, rats fasted 16 h", "result": "5.1 ± 0.5", "unit": "g"}, {"measurement": "Food Intake", "setting": "food intake in rats; 6 h after single intragastric gavage, rats fasted 16 h", "result": "6.3 ± 0.5", "unit": "g"}, {"measurement": "Food Intake", "setting": "food intake in rats; 7 h after single intragastric gavage, rats fasted 16 h", "result": "7.4 ± 0.6", "unit": "g"}, {"measurement": "Food Intake", "setting": "food intake in rats; 8 h after single intragastric gavage, rats fasted 16 h", "result": "8.2 ± 0.6", "unit": "g"}, {"measurement": "Food Intake", "setting": "food intake in rats; 9 h after single intragastric gavage, rats fasted 16 h", "result": "9.3 ± 0.6", "unit": "g"}, {"measurement": "Food Intake", "setting": "food intake in rats; 10 h after single intragastric gavage, rats fasted 16 h", "result": "10.3 ± 0.6", "unit": "g"}, {"measurement": "Food Intake", "setting": "food intake in rats; 11 h after single intragastric gavage, rats fasted 16 h", "result": "11.5 ± 0.6", "unit": "g"}, {"measurement": "Food Intake", "setting": "food intake in rats; 12 h after single intragastric gavage, rats fasted 16 h", "result": "12.4 ± 0.6", "unit": "g"}, {"measurement": "Food Intake", "setting": "food intake in rats; 24 h after single intragastric gavage, rats fasted 16 h", "result": "18.4 ± 0.8", "unit": "g"}, {"measurement": "food intake over the period of the study", "setting": "food intake in rats; rats fasted 16 h, 5 mg/kg single intragastric gavage in saline vs saline alone, 24 h", "result": "reduced food intake over the period of the study"}, {"measurement": "IC50", "setting": "[1]", "result": "8 to 12", "unit": "µM"}, {"measurement": "inhibition of receptor-mediated Ca^2+ entry", "setting": "[2]", "result": "selective inhibitor"}, {"measurement": "inhibition of receptor-mediated Ca^2+ entry", "setting": "[3]", "result": "selective inhibitor"}, {"measurement": "Solubility in water", "setting": "[4]", "result": 30, "unit": "mg/mL"}]}
